Columns and labels:
[1] = system: fMLF/cytochalasin B (CB)-activated human neutrophils; test: Elastase release in fMLF/CB-activated human neutrophils; assay type: cell-based; details: Homo sapiens, Neutrophil, fMLF/CB stimulation, mean ± SEM (n = 3–5); for inhibition at 10 µM: 10 μM compound
Experimental: (§1) The study involving neutrophils was approved by the Institutional Review Board of Chang Gung Memorial Hospital under IRB number: 201902217A3 and was conducted in accordance with the principles of the Declaration of Helsinki. Healthy volunteers aged 20–35 years provided signed informed consents for blood collection. Isolation of neutrophils was done using dextran sedimentation, Ficoll-Hypaque density gradient centrifugation, and hypotonic haemolysis. For the anti-inflammatory studies, neutrophils were suspended in Hank’s balanced salt solution (HBSS) containing 1 mM Ca^2+ at a pH of 7.4[72].
Neutrophils were subsequently stimulated with fMLF (0.1 μM) and CB (0.5 μg/mL) for 13 min. […] LY294002 was used as a positive control.

[2] = system: fMLF/cytochalasin B (CB)-activated human neutrophils; test: Superoxide anion generation (ferricytochrome c reduction) in fMLF/CB-activated human neutrophils; assay type: cell-based; details: Neutrophil, fMLF/CB stimulation, mean ± SEM (n = 3–5); for inhibition at 10 µM: 10 μM compound
Experimental: as §1
The reduction of ferricytochrome c was utilised to measure the production of SO anions in activated human neutrophils. […] The neutrophils were then stimulated with fMLF (0.1 μM) and CB (1 μg/mL) for 13 min. […] LY294002 was used as a positive control.

melting point [°C]	IC50 [1] [µM]	IC50 [2] [µM]	Compound	inhibition at 10 µM [1] [%]	inhibition at 10 µM [2] [%]
85 to 85.5			CC(C)(C)C(=O)/C=C/c1ccc(Cl)cc1 [Compound 1, (E)-1-(4-Chlorophenyl)-4,4-dimethylpent-1-en-3-one]	8.43 ± 4.28	23.4 ± 7.96
118.9 to 120			O=C(/C=C/c1ccc([N+](=O)[O-])cc1)C1CC1 [Compound 1a, (E)-1-Cyclopropyl-3-(4-nitrophenyl)prop-2-en-1-one]	2.36 ± 3.3	20.5 ± 4.05
	7.78 ± 0.96	3.01 ± 0.68	O=C(/C=C/c1ccc(Cl)cc1)c1ccccc1 [Compound 2, (E)-3-(4-Chlorophenyl)-1-phenylprop-2-en-1-one]	62 ± 6.31	94.7 ± 3.22
133.1			CC1(C(=O)/C=C/c2ccc([N+](=O)[O-])cc2)CC1 [Compound 2a, (E)-1-(1-Methylcyclopropyl)-3-(4-nitrophenyl)prop-2-en-1-one]	8.39 ± 2.25	8.75 ± 5.03
101			CC(C)(C)C(=O)/C=C/c1ccc(Br)cc1 [Compound 3, (E)-1-(4-Bromophenyl)-4,4-dimethylpent-1-en-3-one]	9.09 ± 2.01	25 ± 2.48
132 to 134			O=C(/C=C/c1ccc([N+](=O)[O-])cc1)C1CCCCC1 [Compound 3a, (E)-1-Cyclohexyl-3-(4-nitrophenyl)prop-2-en-1-one]	11.9 ± 4.68	11.4 ± 1.6
70 to 71			CC(C)(C)C(=O)/C=C/c1ccc(C(F)(F)F)cc1 [Compound 4, (E)-4,4-Dimethyl-1-(4-(trifluoromethyl)phenyl)pent-1-en-3-one]	1.18 ± 0.98	11.7 ± 5.39
128 to 129	7.22 ± 1.16	4.55 ± 0.1	Cc1ccccc1C(=O)/C=C/c1ccc([N+](=O)[O-])cc1 [Compound 4a, (E)-3-(4-Nitrophenyl)-1-(o-tolyl)prop-2-en-1-one]	63.8 ± 5.98	100 ± 2.65
70.5 to 71.5		1.81 ± 0.22	CCOc1ccccc1C(=O)/C=C/c1ccccc1C(F)(F)F [Compound 5, (E)-1-(2-Ethoxyphenyl)-3-(2-(trifluoromethyl)phenyl)prop-2-en-1-one]	8.13 ± 3.43	68.3 ± 8.99
116.5 to 118	6.25 ± 0.52	3.77 ± 0.33	COc1ccccc1C(=O)/C=C/c1ccc([N+](=O)[O-])cc1 [Compound 5a, (E)-1-(2-Methoxyphenyl)-3-(4-nitrophenyl)prop-2-en-1-one]	75.6 ± 5.02	102 ± 1.92
153 to 155	6.17 ± 0.1	4.35 ± 0.3	O=C(/C=C/c1ccc([N+](=O)[O-])cc1)c1ccccn1 [Compound 7, (E)-3-(4-Nitrophenyl)-1-(pyridin-2-yl)prop-2-en-1-one]	78.1 ± 0.36	94.5 ± 2.89
	6.33 ± 1.15	6.9 ± 0.67	COc1ccc(C(=O)/C=C/c2ccc([N+](=O)[O-])cc2)cc1 [Compound 7a, (E)-1-(4-Methoxyphenyl)-3-(4-nitrophenyl)prop-2-en-1-one]	63.8 ± 6.59	59.7 ± 1.41
92 to 93			CC(C)(C)C(=O)/C=C/c1cccc([N+](=O)[O-])c1 [Compound 8, (E)-4,4-Dimethyl-1-(3-nitrophenyl)pent-1-en-3-one]	4.89 ± 0.91	10.3 ± 2.86
189 to 191	8.31 ± 0.78	2.72 ± 0.35	COc1ccc(C(=O)/C=C/c2ccc([N+](=O)[O-])cc2)cc1OC [Compound 8a, (E)-1-(3,4-Dimethoxyphenyl)-3-(4-nitrophenyl)prop-2-en-1-one]	56.9 ± 3.22	81 ± 2.57
131 to 133			CC(C)(C)C(=O)/C=C/c1ccc(C#N)cc1 [Compound 9, (E)-4-(4,4-Dimethyl-3-oxopent-1-en-1-yl)benzonitrile]	3.76 ± 2.69	20.9 ± 5.55
182.4			O=C(/C=C/c1ccc([N+](=O)[O-])cc1)c1ccc2c(c1)OCO2 [Compound 9a, (E)-1-(Benzo[d][1,3]dioxol-5-yl)-3-(4-nitrophenyl)prop-2-en-1-one]	16.7 ± 6.07	18.1 ± 3.34

melting point [°C]	IC50 [1] [µM]	IC50 [2] [µM]	Compound	inhibition at 10 µM [1] [%]	inhibition at 10 µM [2] [%]
79 to 80			Cc1ccc(/C=C/C(=O)C(C)(C)C)cc1 [Compound 10, (E)-4,4-Dimethyl-1-(p-tolyl)pent-1-en-3-one]	3.91 ± 2.82	8.56 ± 3.04
162 to 164			O=C(/C=C/c1ccc(Cl)cc1)c1ccc2ccccc2c1 [Compound 10a, (E)-3-(4-Chlorophenyl)-1-(naphthalen-2-yl)prop-2-en-1-one]	33.2 ± 6.47	14.2 ± 6.87
76 to 78	7.56 ± 1.05	3.47 ± 0.6	COc1ccccc1C(=O)/C=C/c1ccc(Cl)cc1 [Compound 12a, (E)-3-(4-Chlorophenyl)-1-(2-methoxyphenyl)prop-2-en-1-one]	62.2 ± 5.35	93.8 ± 3.02
	3.3 ± 0.68	1.37 ± 0.73	COc1cccc(C(=O)/C=C/c2ccc(Cl)cc2)c1 [Compound 13a, (E)-3-(4-Chlorophenyl)-1-(3-methoxyphenyl)prop-2-en-1-one]	91.9 ± 1.63	101.7 ± 0.44
71 to 72		6.52 ± 0.57	CC(C)(C)C(=O)/C=C/c1cc(F)cc(F)c1 [Compound 14, (E)-1-(3,5-Difluorophenyl)-4,4-dimethylpent-1-en-3-one]	12 ± 3.52	69.1 ± 6.71
		6.09 ± 7.19	COc1ccc(C(=O)/C=C/c2ccc(Cl)cc2)cc1 [Compound 14a, (E)-3-(4-Chlorophenyl)-1-(4-methoxyphenyl)prop-2-en-1-one]	5.49 ± 4.32	58.9 ± 3.26
			COc1ccc(C(=O)/C=C/c2ccc(Cl)cc2)c(OC)c1 [Compound 15a, (E)-3-(4-Chlorophenyl)-1-(2,4-dimethoxyphenyl)prop-2-en-1-one]	4.42 ± 3.9	13.9 ± 2.43
94 to 96			CC(C)(C)C(=O)/C=C/c1ccc(Cl)c(Cl)c1 [Compound 16, (E)-1-(3,4-Dichlorophenyl)-4,4-dimethylpent-1-en-3-one]	10.2 ± 0.59	16.5 ± 4.67
98.5 to 99.2			CC(C)(C)C(=O)/C=C/c1ccc(Cl)c(F)c1 [Compound 17, (E)-1-(4-Chloro-3-fluorophenyl)-4,4-dimethylpent-1-en-3-one]	9.13 ± 1.78	40.6 ± 3.89
60 to 62	5.36 ± 0.67	2.95 ± 0.4	COc1ccccc1C(=O)/C=C/c1ccccc1Cl [Compound 17a, (E)-3-(2-Chlorophenyl)-1-(2-methoxyphenyl)prop-2-en-1-one]	75.8 ± 6.19	99.05 ± 0.64
		5.23 ± 0.62	COc1ccc(C(=O)/C=C/c2ccccc2Cl)cc1 [Compound 19a, (E)-3-(2-Chlorophenyl)-1-(4-methoxyphenyl)prop-2-en-1-one]	37.6 ± 3.54	80.2 ± 1.98
			CC(C)(C)C(=O)/C=C/c1ccc(Br)s1 [Compound 24, (E)-1-(5-Bromothiophen-2-yl)-4,4-dimethylpent-1-en-3-one]	25.7 ± 5.36	13 ± 6.88
		6.21 ± 0.36	CCOc1ccccc1C(=O)/C=C/c1ccc(Br)s1 [Compound 25, (E)-3-(5-Bromothiophen-2-yl)-1-(2-ethoxyphenyl)prop-2-en-1-one]	26.9 ± 5.5	67.8 ± 3.19
			CC(C)(C)C(=O)/C=C/c1ccc2ccccc2n1 [Compound 27, (E)-4,4-Dimethyl-1-(quinolin-2-yl)pent-1-en-3-one]	5.21 ± 2.72	2.26 ± 0.97
			O=c1cc(N2CCOCC2)oc2c(-c3ccccc3)cccc12 [LY294002, reference compound]	82.5 ± 3.76	102 ± 2.64

Compound	melting point [°C]	IC50 [1] [µM]	IC50 [2] [µM]	inhibition at 10 µM [1] [%]	inhibition at 10 µM [2] [%]
CC(C)(C)Oc1ccc(/C=C/C(=O)C(C)(C)C)cc1 [Compound 11, (E)-1-(4-(tert-Butoxy)phenyl)-4,4-dimethylpent-1-en-3-one]	110 to 111			12.1 ± 3.43	16.8 ± 3.85
CC(C)(C)Oc1ccc(/C=C/C(=O)c2ccco2)cc1 [Compound 12, (E)-3-(4-(tert-Butoxy)phenyl)-1-(furan-2-yl)prop-2-en-1-one]	132.8 to 134.8			19.2 ± 4.05	27.3 ± 2.07
COc1ccc(C(=O)/C=C/c2ccc(Cl)cc2)cc1OC [Compound 16a, (E)-3-(4-Chlorophenyl)-1-(3,4-dimethoxyphenyl)prop-2-en-1-one]			5.53 ± 1.48	22.9 ± 7.11	68.2 ± 7.74
COc1ccc(C(=O)/C=C/c2ccccc2Cl)cc1OC [Compound 20a, (E)-3-(2-Chlorophenyl)-1-(3,4-dimethoxyphenyl)prop-2-en-1-one]		6.79 ± 0.72	3.55 ± 0.56	67.7 ± 5.37	95.6 ± 1.14
